In patent US7267994B2, “Element-coded affinity tags” (Regents of the University of California, priority 2003, dated 2007):

Tests used:
antibody 2D12.5 [1] = experiment: relative binding curves of 2D12.5 for Y-DOTA isomers and side chain variants; set-up: species or system murine; conditions: for relative binding affinity for 2D12.5, isomers: coordinated metal Y^3+, FIG. 15; for relative binding affinity for 2D12.5, side chain location: Y-DOTA molecule with different side chain locations, FIG. 6
Text: FIG. 6 is a graphical display showing the relative binding curves of an exemplary metal chelate, the Y-DOTA molecule, with different side chain locations. […] Evaluation of the crystal structure seems to indicate that shorter substitutions at this position may bind with higher affinity. Substitutions at other locations may yield reasonably high affinities as well. The (5-Amino-2-methoxy-phenyl)-carboxymethyl)-DOTA analyzed in this experiment was racemic, so it is not clear which isomer binds with higher affinity. The low pKa of the carboxymethyl proton makes it difficult to prepare a chirally pure molecule.
FIG. 15 is a graphical display showing the relative binding curves of 2D12.5 for Y-DOTA isomers and Y-DTPA. 2D12.5 binds both the (R)- and (S)- isomers of 2-(4-nitrobenzyl)-DOTA when the coordinated metal is Y^3+ (the same behavior is expected for the other rare earths). The (S)-isomer confers Λ-helicity, while the (R)-isomer confers Δ-helicity to the acetate arms. […] Y-DOTA (no-sidearm) exists is solution as a racemic mixture of the coordination isomers.

antibody 2D12.5 [2] = experiment: competitive immunoassay (ELISA) of metal-DOTA complexes relative to Y-DOTA; type: binding, murine; conditions: metal complexes of [S]-2-(p-nitrobenzyl)-DOTA, 37° C.
Text: FIG. 13 is graphical display showing the relative binding of metal-DOTA complexes to antibody 2D12.5. A representative set of competitive binding curves obtained from ELISA experiments described in Example 3 below. Error bars (representing the standard error of the mean) are shown, but are generally smaller than the data points.
To determine the metal selectivity of the antibody 2D12.5, a competitive immunoassay was used to measure the binding constants of multiple metal-DOTA complexes relative to Y^3+-DOTA.
We examined the monoclonal antibody 2D12.5, initially developed to bind specifically to Y-DOTA for targeted radiotherapy (see, e.g., Goodwin et al., Cancer Res. 54: 5937-5946 (1994)), in order to determine the scope of its activity. To assess the metal selectivity of antibody 2D12.5, a competitive immunoassay to measure the binding constants of various metal-DOTA complexes relative to the original Y^3+ complex was developed (FIG. 13). Briefly, 2D12.5 was incubated at 37° C. in the presence of immobilized Y-DOTA and a soluble metal-DOTA competitor. The metal-DOTA concentration was varied from μM to pM in order to determine the relative binding affinity of 2D12.5 for each metal chelate in comparison to Y-DOTA. Binding was measured by standard methods known to those of skill in the art. […]
Target sequence in this assay (as listed by the source): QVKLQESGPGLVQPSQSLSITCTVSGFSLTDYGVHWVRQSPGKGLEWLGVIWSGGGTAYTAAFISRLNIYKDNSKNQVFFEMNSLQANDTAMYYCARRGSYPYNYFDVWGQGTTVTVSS
Target sequence in this assay (as listed by the source): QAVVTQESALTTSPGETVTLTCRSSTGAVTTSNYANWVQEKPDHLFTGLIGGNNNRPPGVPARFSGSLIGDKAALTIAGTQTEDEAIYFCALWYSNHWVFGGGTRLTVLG

Row | Compound | relative binding affinity for 2D12.5, isomers (antibody 2D12.5 [1]) | relative binding affinity for 2D12.5, side chain location (antibody 2D12.5 [1]) | binding to 2D12.5 compared with the Y^3+ complex (antibody 2D12.5 [2]) | binding to 2D12.5 compared with the Y^3+ complex (antibody 2D12.5 [2]; listed as Gd^3+)
1 | O=C(O)CN1CCN(CC(=O)O)CCN(CC(=O)O)C(Cc2ccc([N+](=O)[O-])cc2)CN(CC(=O)O)CC1 (single isomer, unassigned; isomer 2) [(R)-isomer, 2-(4-nitrobenzyl)-DOTA] | affinity decreases less than an order of magnitude | – | – | –
2 | O=C(O)CN1CCN(CC(=O)O)CCN(CC(=O)O)[C@@H](Cc2ccc([N+](=O)[O-])cc2)CN(CC(=O)O)CC1 [(S)-2-(4-nitrobenzyl)-DOTA, (S)-2-(4-nitro-benzyl)-1,4,7,10-tetraazacyclododecane-N,N′,N″,N′″-tetraacetic acid] | preferred isomer for binding | clearly stronger | – | –
3 | (5-Amino-2-methoxy-phenyl)-carboxymethyl)-DOTA | – | still sufficiently strong | – | –
4 | Gd-DOTA | – | – | bind more tightly than the original Y^3+ complex | strongest binders
